Results on one molecule are retold here after ChEMBL document CHEMBL4130634, “Discovery of Reversible DNA Methyltransferase and Lysine Methyltransferase G9a Inhibitors with Antitumoral in Vivo Efficacy” (J Med Chem, 2018).

Data set [1] is described as follows: Growth inhibition of human CEMO1 cells after 48 hrs by MTS assay. The data set is classed as functional. In general terms: Formazan colour is commonly taken as a measure of viable cells.
A short description of data set [2]: Growth inhibition of human LAL-CUN-2 cells after 48 hrs by MTS assay. The data set is classed as functional.
A further data set relates to OCI-Ly3. Description: Growth inhibition of human OCI-LY3 cells after 48 hrs by MTS assay. Format: functional. The conditions noted are these: OCI-Ly3, 48 h.
Data set [3] concerns the target T1, Histone-lysine N-methyltransferase EHMT1 (Homo sapiens, UniProt Q9H9B1).
T1 sequence (Q9H9B1 whole entry): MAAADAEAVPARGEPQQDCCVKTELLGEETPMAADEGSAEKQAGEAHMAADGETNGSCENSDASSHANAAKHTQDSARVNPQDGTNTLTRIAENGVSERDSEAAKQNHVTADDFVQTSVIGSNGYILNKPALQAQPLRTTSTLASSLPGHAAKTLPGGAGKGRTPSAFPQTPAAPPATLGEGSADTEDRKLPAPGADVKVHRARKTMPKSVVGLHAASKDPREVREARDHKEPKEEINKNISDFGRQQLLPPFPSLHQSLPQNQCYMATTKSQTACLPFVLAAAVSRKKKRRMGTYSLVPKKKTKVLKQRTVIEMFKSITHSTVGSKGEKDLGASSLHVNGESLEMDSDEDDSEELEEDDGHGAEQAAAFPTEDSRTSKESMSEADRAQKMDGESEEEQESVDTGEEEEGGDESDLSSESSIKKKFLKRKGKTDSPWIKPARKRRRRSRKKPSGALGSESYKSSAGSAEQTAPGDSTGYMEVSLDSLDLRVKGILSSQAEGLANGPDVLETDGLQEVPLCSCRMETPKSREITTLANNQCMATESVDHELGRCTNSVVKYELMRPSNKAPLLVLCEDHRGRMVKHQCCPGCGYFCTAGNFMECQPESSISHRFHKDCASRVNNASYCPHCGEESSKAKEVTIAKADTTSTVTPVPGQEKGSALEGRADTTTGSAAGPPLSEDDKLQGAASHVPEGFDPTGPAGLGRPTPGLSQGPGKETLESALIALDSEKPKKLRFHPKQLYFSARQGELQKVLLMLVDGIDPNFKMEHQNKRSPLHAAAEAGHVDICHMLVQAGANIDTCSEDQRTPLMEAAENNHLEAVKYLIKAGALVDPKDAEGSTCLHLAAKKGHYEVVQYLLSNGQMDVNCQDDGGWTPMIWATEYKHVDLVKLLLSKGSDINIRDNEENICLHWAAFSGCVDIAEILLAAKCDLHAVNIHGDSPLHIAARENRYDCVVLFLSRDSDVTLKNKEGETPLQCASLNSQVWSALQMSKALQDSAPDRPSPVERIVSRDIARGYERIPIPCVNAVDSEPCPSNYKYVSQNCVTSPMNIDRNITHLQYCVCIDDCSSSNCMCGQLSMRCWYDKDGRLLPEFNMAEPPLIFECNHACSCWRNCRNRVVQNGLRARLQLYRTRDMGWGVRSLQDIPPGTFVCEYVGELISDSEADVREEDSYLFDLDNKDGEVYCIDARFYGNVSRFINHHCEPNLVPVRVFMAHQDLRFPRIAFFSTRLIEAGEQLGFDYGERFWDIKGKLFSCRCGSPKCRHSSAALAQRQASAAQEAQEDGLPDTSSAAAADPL
Kind of data set: Inhibition of recombinant human GLP using histone H3 peptide as substrate after 120 mins in presence of [3H]SAM by radiometric assay.

The next data set deals with MV4-11. Description: Growth inhibition of human MV4-11 cells after 48 hrs by MTS assay. Format: functional. Particulars: MV4-11, 48 h.
For another data set, the system named is THLE-2. Kind of data set: Growth inhibition of human THLE2 cells after 72 hrs by MTS assay. Format: cell-based. Particulars: thle-2, 72 h.
A further data set has as its target T2, CYP1A2 (Homo sapiens, UniProt P05177).
T2 sequence (P05177 whole entry): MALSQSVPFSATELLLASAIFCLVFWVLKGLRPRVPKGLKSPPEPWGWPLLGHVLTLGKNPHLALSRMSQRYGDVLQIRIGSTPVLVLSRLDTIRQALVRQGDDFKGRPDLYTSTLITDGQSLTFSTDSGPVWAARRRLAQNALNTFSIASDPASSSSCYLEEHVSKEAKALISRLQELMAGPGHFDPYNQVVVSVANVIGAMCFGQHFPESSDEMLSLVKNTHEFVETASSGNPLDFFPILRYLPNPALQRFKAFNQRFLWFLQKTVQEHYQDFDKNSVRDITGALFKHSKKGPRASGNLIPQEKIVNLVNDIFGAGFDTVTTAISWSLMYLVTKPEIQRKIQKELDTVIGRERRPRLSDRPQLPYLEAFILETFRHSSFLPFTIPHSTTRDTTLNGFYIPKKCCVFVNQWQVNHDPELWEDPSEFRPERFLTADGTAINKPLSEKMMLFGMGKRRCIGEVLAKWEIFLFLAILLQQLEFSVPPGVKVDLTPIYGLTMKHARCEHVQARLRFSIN
Description: Inhibition of CYP1A2 in human liver microsomes at 10 uM after 10 mins in presence of NADPH by LC-MS/MS analysis relative to control. The data set is classed as ADME. On the technique in general: Microsomes from liver hold many membrane-bound enzymes, among them those of drug oxidation.

Another data set concerns the target CYP2D6 (Homo sapiens, UniProt P10635). Kind of data set: Inhibition of CYP2D6 in human liver microsomes at 10 uM after 10 mins in presence of NADPH by LC-MS/MS analysis relative to control. The data set is classed as ADME.
For a further data set, the target named is CYP3A4 (Homo sapiens, UniProt P08684). Kind of data set: Inhibition of CYP3A4 in human liver microsomes at 10 uM after 10 mins in presence of NADPH by LC-MS/MS analysis relative to control. Format: ADME.
Chain of CYP3A4 (P08684 whole entry): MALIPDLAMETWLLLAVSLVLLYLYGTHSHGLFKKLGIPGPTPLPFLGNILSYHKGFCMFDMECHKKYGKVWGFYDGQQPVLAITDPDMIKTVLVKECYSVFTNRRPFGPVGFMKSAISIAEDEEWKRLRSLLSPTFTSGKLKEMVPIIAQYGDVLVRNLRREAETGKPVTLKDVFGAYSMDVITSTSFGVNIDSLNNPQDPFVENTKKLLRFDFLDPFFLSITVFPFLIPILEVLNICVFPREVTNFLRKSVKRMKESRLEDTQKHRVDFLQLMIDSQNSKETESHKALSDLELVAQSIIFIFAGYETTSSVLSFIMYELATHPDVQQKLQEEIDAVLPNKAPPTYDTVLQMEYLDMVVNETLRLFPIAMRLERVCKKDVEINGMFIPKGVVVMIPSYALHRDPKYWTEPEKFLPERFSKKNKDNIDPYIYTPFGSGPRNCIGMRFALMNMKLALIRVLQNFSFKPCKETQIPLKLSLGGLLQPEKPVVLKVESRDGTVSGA
A short description of data set [4]: Metabolic stability in human liver microsomes assessed as parent compound remaining at 1 uM preincubated for 10 mins followed by NADP addition after 20 mins by LC-MS/MS analysis. The data set is classed as ADME, microsome. The conditions noted are these: liver microsomes, read-out: Stability.
A short description of data set [5]: Half life in human liver microsomes at 1 uM preincubated for 10 mins followed by NADP addition after 20 mins by LC-MS/MS analysis. Format: ADME, microsome. The conditions noted are these: liver microsomes.
Data set [6] in a line: Volume of distribution at steady state in RARG2-/-gammac-/- Balb/c mouse at 5 mg/kg, iv administered as single dose by LC-MS/MS analysis. Format: ADME, organism-based. Particulars: in vivo, read-out: Vdss.

A value given as a limit tells only on which side of the number the result lay.

Chain of CYP2D6 (P10635 whole entry): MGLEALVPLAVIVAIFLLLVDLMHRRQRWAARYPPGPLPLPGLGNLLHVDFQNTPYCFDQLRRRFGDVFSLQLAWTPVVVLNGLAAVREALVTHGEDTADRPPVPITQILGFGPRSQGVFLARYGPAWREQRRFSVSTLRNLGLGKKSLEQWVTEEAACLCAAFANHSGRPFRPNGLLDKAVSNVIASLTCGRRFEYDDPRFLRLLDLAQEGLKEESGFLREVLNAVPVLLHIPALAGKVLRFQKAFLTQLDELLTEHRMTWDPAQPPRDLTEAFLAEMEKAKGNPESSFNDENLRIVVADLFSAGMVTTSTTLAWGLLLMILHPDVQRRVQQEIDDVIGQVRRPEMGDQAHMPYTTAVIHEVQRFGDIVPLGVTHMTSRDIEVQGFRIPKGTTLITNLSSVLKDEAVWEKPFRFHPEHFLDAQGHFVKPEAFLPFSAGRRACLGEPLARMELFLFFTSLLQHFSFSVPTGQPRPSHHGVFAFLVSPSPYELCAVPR

Turning to `COc1cc2c(NC3CCN(C4CC4)CC3)cc(-c3ccc(C)o3)nc2cc1OCCCN1CCCC1`, the GI50 in data set [1] came out at 453 nM; in data set [2] it was 1380 nM; in the data set on OCI-Ly3, 187 nM; in the data set with MV4-11, 1590 nM. Further, in data set [3], the 50% inhibitory concentration (IC50) was over 20000 nM. In addition, in the data set on THLE-2, the LC50 is recorded as 455 nM. Also, the inhibition at 10 min, 10 µM was found to be 28.6% at CYP1A2, 27.6% on CYP2D6 and 4.6% on CYP3A4. Besides, the remaining at 20 min, 1 µM in [4] stood at 97%. The molecule also returned a half-life at 1 µM in [5] of over 2.4 h. Moreover, the Vd in data set [6] was 11.9 L/kg.

As a reminder, the GI50 is the concentration giving 50% growth inhibition. As usually defined, the IC50 is the concentration needed to halve the response being measured. For orientation: LC50 means the concentration lethal to half of the exposed cells or organisms. Read a low LC50 as a more lethal substance. Broadly, the inhibition is the drop in the measured response relative to a control, in per cent. For orientation: half-life means how long it takes for the measured level to halve.
